# Test results: publication PMC6934184, “Selective DNA-PKcs inhibition extends the therapeutic index of localized radiotherapy and chemotherapy” (The Journal of Clinical Investigation, 2019)
# Biological target: T1, STK25 (YSK1) (Homo sapiens, UniProt O00506)
# T1 construct: purchased Thermo Fisher Scientific (Life Technologies) SelectScreen
# Assay: SelectScreen Z'LYTE
# Format: biochemical
# In short: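 SelectScreen broad panel; activity (Z'LYTE, Adapta) plus binding formats. ATP: Km app for CSF1R Z'LYTE; 10 for CAMK1 Adapta. Readout = % per kinase.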
# T1 sequence (O00506 whole entry): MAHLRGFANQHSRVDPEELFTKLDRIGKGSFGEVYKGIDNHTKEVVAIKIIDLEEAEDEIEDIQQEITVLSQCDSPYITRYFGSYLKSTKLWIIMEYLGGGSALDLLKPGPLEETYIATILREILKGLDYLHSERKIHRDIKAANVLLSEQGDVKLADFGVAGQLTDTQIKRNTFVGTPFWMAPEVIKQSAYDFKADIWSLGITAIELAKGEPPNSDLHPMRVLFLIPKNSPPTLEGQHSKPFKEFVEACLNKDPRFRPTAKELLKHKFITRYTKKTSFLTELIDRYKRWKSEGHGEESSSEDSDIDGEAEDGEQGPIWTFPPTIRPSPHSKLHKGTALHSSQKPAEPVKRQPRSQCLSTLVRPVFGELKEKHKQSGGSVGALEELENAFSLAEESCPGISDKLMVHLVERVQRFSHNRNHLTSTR
smiles,measurement,value
CN(C(=O)CN1CCOCC1)c1ccc2sc3c(-c4cccc5c(=O)cc(N6CC7CCC(C6)O7)oc45)cccc3c2c1 [NU5455],inhibition at 1 µM,-11.4%
